Common to all, as to type: functional, cell-based
For test [1], the target named is T1, Peroxisome proliferator-activated receptor gamma (Homo sapiens, UniProt P37231).
T1 sequence (P37231 whole entry): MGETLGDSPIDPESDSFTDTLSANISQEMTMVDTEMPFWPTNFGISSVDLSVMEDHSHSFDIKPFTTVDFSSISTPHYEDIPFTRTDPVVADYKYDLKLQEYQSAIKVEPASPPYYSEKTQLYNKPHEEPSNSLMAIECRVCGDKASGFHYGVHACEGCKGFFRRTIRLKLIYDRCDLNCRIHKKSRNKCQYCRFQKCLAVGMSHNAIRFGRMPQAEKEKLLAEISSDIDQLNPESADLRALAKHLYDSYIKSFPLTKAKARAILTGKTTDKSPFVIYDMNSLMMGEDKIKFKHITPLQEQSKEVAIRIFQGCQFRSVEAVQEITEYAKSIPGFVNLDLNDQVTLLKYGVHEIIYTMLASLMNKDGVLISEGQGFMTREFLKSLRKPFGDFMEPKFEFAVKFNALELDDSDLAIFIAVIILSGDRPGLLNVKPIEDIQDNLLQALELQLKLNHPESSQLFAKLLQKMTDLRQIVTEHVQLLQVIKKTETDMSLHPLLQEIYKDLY
The experiment in a line: Agonist activity at PPARgamma transfected in HEK293 cells by GAL4 transactivation assay.

Test [2] has as its target T2, Peroxisome proliferator-activated receptor delta (Homo sapiens, UniProt Q03181).
T2 sequence (Q03181 whole entry): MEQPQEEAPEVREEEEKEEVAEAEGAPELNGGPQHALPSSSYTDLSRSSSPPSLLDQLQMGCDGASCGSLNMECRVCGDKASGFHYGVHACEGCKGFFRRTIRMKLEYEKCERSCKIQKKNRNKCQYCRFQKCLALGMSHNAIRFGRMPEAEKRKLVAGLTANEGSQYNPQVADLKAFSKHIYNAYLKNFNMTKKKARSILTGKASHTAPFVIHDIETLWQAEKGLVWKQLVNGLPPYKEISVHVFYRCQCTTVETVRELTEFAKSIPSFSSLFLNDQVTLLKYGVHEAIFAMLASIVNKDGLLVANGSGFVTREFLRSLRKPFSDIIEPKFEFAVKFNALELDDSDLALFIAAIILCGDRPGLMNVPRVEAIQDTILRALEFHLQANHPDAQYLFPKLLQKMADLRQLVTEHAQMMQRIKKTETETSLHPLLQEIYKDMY
Description: Agonist activity at PPARdelta transfected in HEK293 cells by GAL4 transactivation assay.

In test [3] the target is T3, Peroxisome proliferator-activated receptor alpha (Homo sapiens, UniProt Q07869).
T3 sequence (Q07869 whole entry): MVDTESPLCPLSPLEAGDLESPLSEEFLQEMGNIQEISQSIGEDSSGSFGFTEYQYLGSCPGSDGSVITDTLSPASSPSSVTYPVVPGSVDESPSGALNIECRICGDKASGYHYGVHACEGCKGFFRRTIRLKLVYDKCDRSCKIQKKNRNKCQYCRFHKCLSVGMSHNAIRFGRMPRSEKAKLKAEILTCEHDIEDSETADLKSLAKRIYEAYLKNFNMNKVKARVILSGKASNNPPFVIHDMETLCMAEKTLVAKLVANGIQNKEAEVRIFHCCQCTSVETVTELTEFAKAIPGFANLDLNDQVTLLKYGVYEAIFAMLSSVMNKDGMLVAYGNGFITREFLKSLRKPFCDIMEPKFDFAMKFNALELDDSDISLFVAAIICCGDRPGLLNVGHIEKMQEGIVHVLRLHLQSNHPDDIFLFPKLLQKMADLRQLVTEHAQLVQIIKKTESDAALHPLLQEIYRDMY
Description: Agonist activity at PPARalpha transfected in HEK293 cells by GAL4 transactivation assay.

SMILES strings stand for the structures.

What is called EC50 is the concentration needed to bring the measured effect to its halfway point. A high value points to a need for much substance. On to `CCCOc1cc(F)c(C[C@H](CC)C(=O)O)cc1CNC(=O)c1ccc(C23CC4CC(CC(C4)C2)C3)cc1F`, for which the EC50 was found to be 38 nM in test [1], 25 nM in test [2] and 12 nM in test [3].

On to `CCC(Cc1cc(CNC(=O)c2ccc(C(F)(F)F)cc2)c(OC)cc1F)C(=O)O` (racemic), for which the results for the EC50 in test [1], in test [2] and in test [3] were 1100 nM, 20 nM and 3.6 nM, respectively.

In the case of `CCCOc1cc(F)c(C[C@@H](CC)C(=O)O)cc1CNC(=O)c1ccc(C23CC4CC(CC(C4)C2)C3)cc1F`, the EC50 in test [1] was 160 nM; in test [2] it was 180 nM; in test [3], 200 nM.

Take `CCC(Cc1ccc(OC)c(CNC(=O)c2ccc(C34CC5CC(CC(C5)C3)C4)cc2F)c1)C(=O)O` (racemic): the EC50 in test [1] is 140 nM; in test [2], 550 nM; in test [3] it was 60 nM.

On to `CCCOc1ccc(C[C@H](CC)C(=O)O)cc1CNC(=O)c1ccc(C23CC4CC(CC(C4)C2)C3)cc1`, for which the response in test [3] was half-maximal at 58 nM (EC50). That is a double-digit nanomolar value.

On to `CCC(Cc1ccc(OC)c(CNC(=O)c2ccc(C34CC5CC(CC(C5)C3)C4)cc2)c1)C(=O)O` (racemic), for which the EC50 amounted to 110 nM in test [1], 940 nM in test [2] and 53 nM in test [3].

For the compound `CCCOc1cc(F)c(CC(CC)C(=O)O)cc1CNC(=O)c1ccc(C23CC4CC(CC(C4)C2)C3)cc1` (racemic), the EC50 came out at 15 nM in test [1], 60 nM in test [2] and 17 nM in test [3].

Consider `CCCOc1cc(F)c(CC(CC)C(=O)O)cc1CNC(=O)c1ccc(C23CC4CC(CC(C4)C2)C3)cc1F` (racemic), for which the results for the EC50 in test [1], in test [2] and in test [3] were 35 nM, 28 nM and 13 nM, respectively.

On to `CCOc1cc(F)c(CC(CC)C(=O)O)cc1CNC(=O)c1ccc(C23CC4CC(CC(C4)C2)C3)cc1F` (racemic), for which the EC50 in test [1] turned out to be 22 nM; in test [2], 55 nM; in test [3], 7.5 nM.

On to `CCC(Cc1cc(F)c(OC)c(CNC(=O)c2ccc(C34CC5CC(CC(C5)C3)C4)cc2)c1)C(=O)O` (racemic), for which the EC50 in test [1] was found to be 190 nM; in test [2] it was 2200 nM; in test [3] it was 260 nM.

Take `CCC(Cc1ccc(OC)c(CNC(=O)c2ccc(C(F)(F)F)cc2F)c1)C(=O)O` (racemic): the EC50 in test [1] worked out at 2600 nM; in test [2], 29 nM; in test [3] it was 7.9 nM.

As to `CCC(Cc1cc(CNC(=O)c2ccc(C34CC5CC(CC(C5)C3)C4)cc2)c(OC)cc1F)C(=O)O` (racemic), the EC50 turned out to be 36 nM in test [1], 280 nM in test [2] and 13 nM in test [3].

On to `CCOc1cc(F)c(CC(CC)C(=O)O)cc1CNC(=O)c1ccc(C23CC4CC(CC(C4)C2)C3)cc1` (racemic), for which the EC50 was 24 nM in test [1], 94 nM in test [2] and 7.1 nM in test [3].

For the compound `CCC(Cc1cc(F)c(OC)c(CNC(=O)c2ccc(C(F)(F)F)cc2)c1)C(=O)O` (racemic), the values for the EC50 in test [1], in test [2] and in test [3] were more than 10000 nM, 59 nM and 54 nM, respectively.
